How the values were obtained:
B16-F10 cells = assay: Assay of melanin in B16-F10 cells (colorimetric, α-MSH stimulated); format: cell-based, murine; conditions: 0.1 μM α-MSH
Experimental: It is a test to measure the synthesis of melanin by colorimetric assay on a murine melanoma cell line: line B16-F10. With this test it is possible to evaluate the depigmenting or propigmenting property of active ingredients.
The B16-F10 cells were seeded in 96-well plates in DMEM medium supplemented with FCS (foetal calf serum), and incubated 24 h at 37° C., 5% CO2. The cells were stimulated with 0.1 μM α-MSH (to stimulate melanin synthesis, the observed stimulation being about 150%) and treated 72 h with the active ingredients to be assayed. Each concentration of active ingredient was assayed at least in triplicate. Total melanin and intracellular melanin dissolved in lysis buffer were assayed by absorbance read-off at 405 nm. The total proteins were assayed in the lysate and the results expressed in mg melanin/mg proteins. Percentage activity was calculated as follows: […]
A negative value indicates inhibition of the melanin synthesis and translates depigmenting activity of the compound, whereas a positive value indicates induced melanin synthesis and translates a propigmenting property of the molecule.
• B16-F10 cell lines between P10 and P20 (murine melanocytes) (ATCC, CRL-6475); • reagents: DMEM without Phenol Red (GIBCOBRL, 118800-028), 200 mM glutamax-I supplement (GIBCOBRL, 35050-038), glucose (SIGMA, G7021), PBS (GIBCOBRL, 14190-094), foetal calf serum (Invitrogen, 10270-098), trypsin-EDTA (GIBCOBRL, 25300-054), NaOH (Sigma, S8045-500G), DMSO (Sigma, 471267-11), Nle, Phe-Melanocyte Stimulating Hormone (Sigma, M-8764), melanin (Sigma, M-0418), BCA-COPPER (SIGMA, B9643 and C2284), BSA (SIGMA, P0914) B) Test to Study Anti-Oxidizing Capability Using Chemiluminescence (Photochem Analytic Jena) Principle

[1] = Log P (octanol/water partition coefficient); format: physicochemical
Description: Log P, also called Log Kow, is a measurement of the differential solubility of chemical compounds in two solvents (octanol/water partition coefficient).
Log P is equal to the logarithm of the ratio of the concentrations of the examined substance in octanol and in water. Log P=Log(Coct/Cwater). With this value it is possible to assess the hydrophilic or hydrophobic (lipophilic) nature of a molecule. If Log P is positive and very high, this means that the molecule under consideration is much more soluble in octanol than in water, which reflects its lipophilic nature, and conversely. A value of Log P=0 means that the molecule is distributed equally between the two phases and Coct=Cwater (C. Hansch, J. F. Quinlan, G. L. Lawrence, Linear free energy relationship between partition coefficients and the aqueous solubility of organic liquids, J. Org. Chem., 33 (1968), 347-350; C. Hansch, A. Leo, Exploring QSAR—Fundamentals and Applications in Chemistry and Biology, American Chemical Society, Washington, 1995; J. Sangster, Octanol—Water Partition Coefficients: Fundamentals and Physical Chemistry, Wiley, Chichester, 1997; W. Jorgensen, E. Duffy, Advanced Drug Delivery Reviews, (54), 2002, 355-366).

[2] = Test to study anti-oxidizing capability using chemiluminescence (Photochem Analytic Jena); format: biochemical; conditions: quantity of sample needed for activity equivalent to 1 μg Trolox, superoxide anion trapping
Experimental: This test is used to determine the anti-oxidizing capability of the molecules. It is a method which generates free radicals via photochemical signal. The intensity of oxidation is 1000 times higher than obtained under normal conditions.
Detection is performed using chemiluminescence. This allows evaluation of water-soluble and liposoluble antioxidant molecules or extracts
The results are expressed in equivalent quantity of vitamin C or Trolox (6-hydroxy-2,5,7,8-tetramethylchroman-2-carboxylic acid) respectively. Sensitivity is in the order of one nanomole.
The anti-oxidizing activity studied in this test represents the capability of specifically trapping superoxide anions by chemiluminescence.
The quantified results are expressed in Trolox equivalent (standard) or in “μg of product per 1 μg of Trolox”. This means that a quantity x of sample is needed to obtain activity equivalent to the activity detected with 1 μg of standard. It is the antioxidizing power in relation to a reference; this avoids having to take into account the concentrations tested.
The superoxide radical: O2^∘^− is generated by photochemical reaction: L+hv(UV)+O2→L*O2→L^∘^++O2^∘^− • L*: luminol in the excited state L^∘+: luminol radical Signal Detection
Part of the superoxide anions are inhibited by the antioxidants. The remaining free radicals are quantified by chemiluminescence. L^∘^++O2^∘^−→N2+AP*^2−→AP^2−+hv (luminescence)
AP*^2−: aminophthalate in the excited state

[3] = Mus musculus, B16-F10, 72 h, negative = inhibition, positive = stimulation, read-out: Melanin synthesis on B16

Row | Compound | logP [1] | melting point [°C] | further results
1 | CCN1C2=C(C(=O)CC(C)(C)C2)C(c2ccc(O)c(OC)c2)C2=C1CC(C)(C)CC2=O [Example 12, 10-ethyl-9-(4-hydroxy-3-methoxyphenyl)-3,3,6,6-tetramethyl-3,4,6,7,9,10-hexahydroacridine-1,8(2H,5H)-dione] | 2.06 | – | activation at 50 µM (B16-F10 cells; [3]): 72%
2 | CCCCN1C2=C(C(=O)CC(C)(C)C2)C(c2ccc(O)c(OC)c2)C2=C1CC(C)(C)CC2=O [Example 14, 10-butyl-9-(4-hydroxy-3-methoxyphenyl)-3,3,6,6-tetramethyl-3,4,6,7,9,10-hexahydroacridine-1,8(2H,5H)-dione] | 2.97 | – | activation at 20 µM (B16-F10 cells; [3]): 45%
3 | CCCCCCCCCCCN1C2=C(C(=O)CC(C)(C)C2)C(c2ccc(O)c(OC)c2)C2=C1CC(C)(C)CC2=O [Example 20, 9-(4-hydroxy-3-methoxyphenyl)-3,3,6,6-tetramethyl-10-undecyl-3,4,6,7,9,10-hexahydroacridine-1,8(2H,5H)-dione] | 5.89 | 118.9 | activation at 5 µM (B16-F10 cells; [3]): -57%
4 | Nle, Phe-Melanocyte Stimulating Hormone [α-MSH, reference compound] | – | – | Stimulation of melanin synthesis (B16-F10 cells; B16-F10 cells): about 150%
5 | COc1cc(C2C3=C(CC(C)(C)CC3=O)N(Cc3ccccc3)C3=C2C(=O)CC(C)(C)C3)ccc1O [Example 21, 10-benzyl-9-(4-hydroxy-3-methoxyphenyl)-3,3,6,6-tetramethyl-3,4,6,7,9,10-hexahydroacridine-1,8(2H,5H)-dione] | 3.46 | – | activation at 100 µM (B16-F10 cells; [3]): 48%
6 | CCCCCCCN1C2=C(C(=O)CC(C)(C)C2)C(c2ccc(O)c(OC)c2)C2=C1CC(C)(C)CC2=O [Example 17, 10-heptyl-9-(4-hydroxy-3-methoxyphenyl)-3,3,6,6-tetramethyl-3,4,6,7,9,10-hexahydroacridine-1,8(2H,5H)-dione] | 4.22 | 154.8 | activation at 20 µM (B16-F10 cells; [3]): -68%
7 | COc1cc(C2C3=C(CC(C)(C)CC3=O)NC3=C2C(=O)CC(C)(C)C3)ccc1O [Example 10, 9-(4-hydroxy-3-methoxyphenyl)-3,3,6,6-tetramethyl-3,4,6,7,9,10-hexahydroacridine-1,8(2H,5H)-dione] | 1.49 | 309.8 | activation at 100 µM (B16-F10 cells; [3]): 29%
8 | CN1C2=C(C(=O)CC(c3ccccc3)C2)C(c2ccc(O)c(O)c2)C2=C1CC(c1ccccc1)CC2=O (stereo not shown) [Example 5, 9-(3,4-dihydroxyphenyl)-10-methyl-3,6-diphenyl-3,4,6,7,9,10-hexahydroacridine-1,8(2H,5H)-dione] | – | – | μg sample per 1 μg of Trolox [2]: 0.05 μg sample per 1 μg of Trolox
9 | CCCCCCCCN1C2=C(C(=O)CC(C)(C)C2)C(c2ccc(O)c(OC)c2)C2=C1CC(C)(C)CC2=O [Example 18, 9-(4-hydroxy-3-methoxyphenyl)-3,3,6,6-tetramethyl-10-octyl-3,4,6,7,9,10-hexahydroacridine-1,8(2H,5H)-dione] | 4.63 | 154.2 | activation at 5 µM (B16-F10 cells; [3]): -59%
10 | CCCCCCN1C2=C(C(=O)CC(C)(C)C2)C(c2ccc(O)c(OC)c2)C2=C1CC(C)(C)CC2=O [Example 16, 10-hexyl-9-(4-hydroxy-3-methoxyphenyl)-3,3,6,6-tetramethyl-3,4,6,7,9,10-hexahydroacridine-1,8(2H,5H)-dione] | 3.8 | 177.7 | –
11 | COc1cc(C2C3=C(CC(C)(C)CC3=O)N(CCc3ccccc3)C3=C2C(=O)CC(C)(C)C3)ccc1O [Example 22, 9-(4-hydroxy-3-methoxyphenyl)-3,3,6,6-tetramethyl-10-phenethyl-3,4,6,7,9,10-hexahydroacridine-1,8(2H,5H)-dione] | 3.74 | – | –
12 | COc1cc(C2C3=C(CC(C)(C)CC3=O)N(C)C3=C2C(=O)CC(C)(C)C3)ccc1O [Example 11, 9-(4-hydroxy-3-methoxyphenyl)-3,3,6,6,10-pentamethyl-3,4,6,7,9,10-hexahydroacridine-1,8(2H,5H)-dione] | 1.72 | – | activation at 100 µM (B16-F10 cells; [3]): 47%
13 | CN1C2=C(C(=O)CC(C)(C)C2)C(c2ccc(O)c(O)c2)C2=C1CC(C)(C)CC2=O [Example 4, 9-(3,4-dihydroxyphenyl)-3,3,6,6,10-pentamethyl-3,4,6,7,9,10-hexahydroacridine-1,8(2H,5H)-dione] | – | – | μg sample per 1 μg of Trolox [2]: 0.017 μg sample per 1 μg of Trolox
14 | CCCCCCCCCN1C2=C(C(=O)CC(C)(C)C2)C(c2ccc(O)c(OC)c2)C2=C1CC(C)(C)CC2=O [Example 19, 9-(4-hydroxy-3-methoxyphenyl)-3,3,6,6-tetramethyl-10-nonyl-3,4,6,7,9,10-hexahydroacridine-1,8(2H,5H)-dione] | 5.05 | 127 | activation at 5 µM (B16-F10 cells; [3]): -42%
15 | COc1cc(C2C3=C(CC(C)(C)CC3=O)N(CC(c3ccccc3)c3ccccc3)C3=C2C(=O)CC(C)(C)C3)ccc1O [Example 24, 10-(2,2-diphenylethyl)-9-(4-hydroxy-3-methoxyphenyl)-3,3,6,6-tetramethyl-3,4,6,7,9,10-hexahydroacridine-1,8(2H,5H)-dione] | 5.32 | – | activation at 5 µM (B16-F10 cells; [3]): -37%
16 | CCCN1C2=C(C(=O)CC(C)(C)C2)C(c2ccc(O)c(OC)c2)C2=C1CC(C)(C)CC2=O [Example 13, 9-(4-hydroxy-3-methoxyphenyl)-3,3,6,6-tetramethyl-10-propyl-3,4,6,7,9,10-hexahydroacridine-1,8(2H,5H)-dione] | 2.55 | 259.5 | activation at 50 µM (B16-F10 cells; [3]): 43%
17 | CCCCCCCCCCN1C2=C(C(=O)CC(c3ccccc3)C2)C(c2ccc(O)c(O)c2)C2=C1CC(c1ccccc1)CC2=O (stereo not shown) [Example 6, 10-decyl-9-(3,4-dihydroxyphenyl)-3,6-diphenyl-3,4,6,7,9,10-hexahydroacridine-1,8(2H,5H)-dione] | – | – | μg sample per 1 μg of Trolox [2]: 0.04 μg sample per 1 μg of Trolox
18 | COc1cc(C2C3=C(CC(C)(C)CC3=O)N(CCCc3ccccc3)C3=C2C(=O)CC(C)(C)C3)ccc1O [Example 23, 9-(4-hydroxy-3-methoxyphenyl)-3,3,6,6-tetramethyl-10-(3-phenylpropyl)-3,4,6,7,9,10-hexahydroacridine-1,8(2H,5H)-dione] | 4.15 | – | activation at 10 µM (B16-F10 cells; Mus musculus, B16-F10, at 10 μM, 72 h, negative = inhibition, positive = stimulation, read-out: Melanin synthesis on B16): -37%
19 | CCCCCN1C2=C(C(=O)CC(C)(C)C2)C(c2ccc(O)c(OC)c2)C2=C1CC(C)(C)CC2=O [Example 15, 9-(4-hydroxy-3-methoxyphenyl)-3,3,6,6-tetramethyl-10-pentyl-3,4,6,7,9,10-hexahydroacridine-1,8(2H,5H)-dione] | 3.38 | 194.5 | activation at 50 µM (B16-F10 cells; [3]): 42%
